Results taken from ChEMBL document CHEMBL4507303, “Data for DCP probe TP-004” (2021).
Active and inactive are the calls of the source. No cut-off for these calls is given here.

Tests used:
[1] = target: Myosin light chain kinase, smooth muscle (Homo sapiens) (UniProt Q15746); conditions: Compound concentration 1000.0 nM
[2] = target: Mitogen-activated protein kinase kinase kinase kinase 5 (Homo sapiens) (UniProt Q9Y4K4); conditions: Compound concentration 1000.0 nM
[3] = target: Cyclin-dependent kinase 11A (Homo sapiens) (UniProt Q9UQ88); conditions: Compound concentration 1000.0 nM
[4] = target: Wee1-like protein kinase 2 (Homo sapiens) (UniProt P0C1S8); conditions: Compound concentration 1000.0 nM
[5] = target: Serine/threonine-protein kinase 26 (Homo sapiens) (UniProt Q9P289); conditions: Compound concentration 1000.0 nM
[6] = target: GABA-A receptor; anion channel; assay: GPCRScan assay: inhibition of GABAA/BZP; assay type: protein-complex assay, Rattus norvegicus; set-up: radioligand conc. used [nm] 0.6 – 4.0, parental cells brain tissue
[7] = target: SNF-related serine/threonine-protein kinase (Homo sapiens) (UniProt Q9NRH2); conditions: Compound concentration 1000.0 nM
[8] = target: Non-receptor tyrosine-protein kinase TYK2 (Homo sapiens) (UniProt P29597); conditions: Compound concentration 1000.0 nM
[9] = target: MAP kinase-activated protein kinase 2 (Homo sapiens) (UniProt P49137); conditions: Compound concentration 1000.0 nM
[10] = target: Death-associated protein kinase 3 (Homo sapiens) (UniProt O43293); conditions: Compound concentration 1000.0 nM
[11] = target: Serine/threonine-protein kinase tousled-like 1 (Homo sapiens) (UniProt Q9UKI8); conditions: Compound concentration 1000.0 nM
[12] = target: Serine/threonine-protein kinase 17A (Homo sapiens) (UniProt Q9UEE5); conditions: Compound concentration 1000.0 nM
[13] = target: Rhodopsin kinase GRK1 (Homo sapiens) (UniProt Q15835); conditions: Compound concentration 1000.0 nM
[14] = system: Tyrosine-protein kinase ABL1 (Homo sapiens), P00519 [Y253F]; conditions: Compound concentration 1000.0 nM
[15] = target: Serine/threonine-protein kinase Nek9 (Homo sapiens) (UniProt Q8TD19); conditions: Compound concentration 1000.0 nM
Sequence of Serine/threonine-protein kinase Nek9 (Homo sapiens) (Q8TD19 whole entry): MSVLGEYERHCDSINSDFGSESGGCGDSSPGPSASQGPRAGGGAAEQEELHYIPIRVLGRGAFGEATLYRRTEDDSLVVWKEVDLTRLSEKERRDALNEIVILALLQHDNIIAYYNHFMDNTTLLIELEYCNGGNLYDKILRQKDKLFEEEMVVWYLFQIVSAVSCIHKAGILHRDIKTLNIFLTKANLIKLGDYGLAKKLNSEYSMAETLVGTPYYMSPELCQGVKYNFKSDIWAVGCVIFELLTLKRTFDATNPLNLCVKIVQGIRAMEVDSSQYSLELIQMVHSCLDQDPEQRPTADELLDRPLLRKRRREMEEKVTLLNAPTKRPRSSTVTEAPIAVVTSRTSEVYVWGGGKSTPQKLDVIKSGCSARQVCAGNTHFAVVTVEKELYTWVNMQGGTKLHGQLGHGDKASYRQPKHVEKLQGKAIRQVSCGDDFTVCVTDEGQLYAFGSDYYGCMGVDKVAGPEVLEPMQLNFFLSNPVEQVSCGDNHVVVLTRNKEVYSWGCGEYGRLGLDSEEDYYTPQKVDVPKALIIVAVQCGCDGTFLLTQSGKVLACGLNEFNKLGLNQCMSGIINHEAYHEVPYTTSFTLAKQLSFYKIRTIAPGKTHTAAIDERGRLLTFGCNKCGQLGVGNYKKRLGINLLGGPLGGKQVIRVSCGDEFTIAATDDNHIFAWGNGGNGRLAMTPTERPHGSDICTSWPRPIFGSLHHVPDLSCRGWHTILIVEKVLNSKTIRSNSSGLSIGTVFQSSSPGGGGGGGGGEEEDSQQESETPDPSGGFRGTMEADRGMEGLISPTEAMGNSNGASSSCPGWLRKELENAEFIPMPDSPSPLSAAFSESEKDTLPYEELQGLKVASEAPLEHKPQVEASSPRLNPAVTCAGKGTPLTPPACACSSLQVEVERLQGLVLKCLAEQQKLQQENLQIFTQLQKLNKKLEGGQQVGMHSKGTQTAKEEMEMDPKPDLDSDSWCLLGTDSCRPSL

[16] = target: Mitogen-activated protein kinase kinase kinase 19 (Homo sapiens) (UniProt Q56UN5); conditions: Compound concentration 1000.0 nM
[17] = target: Serine/threonine-protein kinase STK11 (Homo sapiens) (UniProt Q15831); conditions: Compound concentration 1000.0 nM
[18] = target: Uncharacterized serine/threonine-protein kinase SBK3 (Homo sapiens) (UniProt P0C264); conditions: Compound concentration 1000.0 nM
[19] = system: Proto-oncogene tyrosine-protein kinase receptor Ret (Homo sapiens), P07949 [V804M]; conditions: Compound concentration 1000.0 nM
[20] = target: Serine/threonine-protein kinase ULK1 (Homo sapiens) (UniProt O75385); conditions: Compound concentration 1000.0 nM
[21] = target: Phosphorylase b kinase regulatory subunit alpha, liver isoform (Homo sapiens) (UniProt P46019); conditions: Compound concentration 1000.0 nM
[22] = system: Mast/stem cell growth factor receptor Kit (Homo sapiens), P10721 [L576P]; conditions: Compound concentration 1000.0 nM
[23] = target: Vascular endothelial growth factor receptor 1 (Homo sapiens) (UniProt P17948); conditions: Compound concentration 1000.0 nM
[24] = target: Tyrosine-protein kinase Fer (Homo sapiens) (UniProt P16591); conditions: Compound concentration 1000.0 nM
[25] = target: LIM domain kinase 1 (Homo sapiens) (UniProt P53667); conditions: Compound concentration 1000.0 nM
[26] = target: Serine/threonine-protein kinase 24 (Homo sapiens) (UniProt Q9Y6E0); conditions: Compound concentration 1000.0 nM
[27] = system: Hepatocyte growth factor receptor (Homo sapiens), P08581 [M1250T]; conditions: Compound concentration 1000.0 nM
[28] = target: Homeodomain-interacting protein kinase 1 (Homo sapiens) (UniProt Q86Z02); conditions: Compound concentration 1000.0 nM
[29] = target: Peripheral plasma membrane protein CASK (Homo sapiens) (UniProt O14936); conditions: Compound concentration 1000.0 nM
Sequence of Peripheral plasma membrane protein CASK (Homo sapiens) (O14936 whole entry, the tested form may be a part): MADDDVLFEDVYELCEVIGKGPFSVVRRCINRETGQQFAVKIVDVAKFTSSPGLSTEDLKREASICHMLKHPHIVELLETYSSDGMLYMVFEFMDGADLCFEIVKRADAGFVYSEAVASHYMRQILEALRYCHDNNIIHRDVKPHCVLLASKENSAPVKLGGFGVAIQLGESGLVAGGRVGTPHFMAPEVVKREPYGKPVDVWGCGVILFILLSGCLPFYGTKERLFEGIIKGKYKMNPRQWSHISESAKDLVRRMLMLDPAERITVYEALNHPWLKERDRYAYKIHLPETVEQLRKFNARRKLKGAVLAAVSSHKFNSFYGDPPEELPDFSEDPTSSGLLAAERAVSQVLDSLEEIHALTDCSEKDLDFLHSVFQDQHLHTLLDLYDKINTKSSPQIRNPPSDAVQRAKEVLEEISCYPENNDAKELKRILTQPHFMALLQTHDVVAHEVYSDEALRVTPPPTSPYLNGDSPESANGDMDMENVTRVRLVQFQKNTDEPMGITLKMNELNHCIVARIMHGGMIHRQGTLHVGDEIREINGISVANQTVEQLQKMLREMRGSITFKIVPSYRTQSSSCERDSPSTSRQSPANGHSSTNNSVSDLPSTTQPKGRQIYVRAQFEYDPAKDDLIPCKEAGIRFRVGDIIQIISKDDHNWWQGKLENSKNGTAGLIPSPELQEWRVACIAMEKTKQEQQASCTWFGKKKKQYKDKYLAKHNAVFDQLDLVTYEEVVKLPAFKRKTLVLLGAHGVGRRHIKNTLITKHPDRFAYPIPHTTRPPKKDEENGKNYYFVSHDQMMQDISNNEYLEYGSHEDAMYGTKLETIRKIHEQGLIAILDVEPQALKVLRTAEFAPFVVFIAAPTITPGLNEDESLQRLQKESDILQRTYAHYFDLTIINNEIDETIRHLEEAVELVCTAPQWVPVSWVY

[30] = target: LIM domain kinase 2 (Homo sapiens) (UniProt P53671); conditions: Compound concentration 1000.0 nM
Sequence of LIM domain kinase 2 (Homo sapiens) (P53671 whole entry, looked up, the tested form may be a part): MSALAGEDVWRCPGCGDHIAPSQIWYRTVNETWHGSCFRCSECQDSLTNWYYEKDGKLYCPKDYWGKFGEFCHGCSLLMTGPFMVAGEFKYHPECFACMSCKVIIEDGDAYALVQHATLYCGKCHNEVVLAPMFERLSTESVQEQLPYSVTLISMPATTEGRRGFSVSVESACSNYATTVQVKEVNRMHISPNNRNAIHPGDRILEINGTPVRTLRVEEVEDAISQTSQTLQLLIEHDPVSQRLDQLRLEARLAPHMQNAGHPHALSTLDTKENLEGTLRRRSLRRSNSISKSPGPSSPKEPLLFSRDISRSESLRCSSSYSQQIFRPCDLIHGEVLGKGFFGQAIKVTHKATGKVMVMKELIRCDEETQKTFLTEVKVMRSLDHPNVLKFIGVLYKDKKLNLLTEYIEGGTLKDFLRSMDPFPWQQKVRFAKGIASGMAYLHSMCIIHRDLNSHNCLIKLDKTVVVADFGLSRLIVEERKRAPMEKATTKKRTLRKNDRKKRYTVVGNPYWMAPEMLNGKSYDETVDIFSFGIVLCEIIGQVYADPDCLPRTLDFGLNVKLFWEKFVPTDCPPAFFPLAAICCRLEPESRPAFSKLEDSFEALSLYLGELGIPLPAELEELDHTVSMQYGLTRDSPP

[31] = target: Cyclin-dependent kinase-like 1 (Homo sapiens) (UniProt Q00532); conditions: Compound concentration 1000.0 nM
Sequence of Cyclin-dependent kinase-like 1 (Homo sapiens) (Q00532 whole entry): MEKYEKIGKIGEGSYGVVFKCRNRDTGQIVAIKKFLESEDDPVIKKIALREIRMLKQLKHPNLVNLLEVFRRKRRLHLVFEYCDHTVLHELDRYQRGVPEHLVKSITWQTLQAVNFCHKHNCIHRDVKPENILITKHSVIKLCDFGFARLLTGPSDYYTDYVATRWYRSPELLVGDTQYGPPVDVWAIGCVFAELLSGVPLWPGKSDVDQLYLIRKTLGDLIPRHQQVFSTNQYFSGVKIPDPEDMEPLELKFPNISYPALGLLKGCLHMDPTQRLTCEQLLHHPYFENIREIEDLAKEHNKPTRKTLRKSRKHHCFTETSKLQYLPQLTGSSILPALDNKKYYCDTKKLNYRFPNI

[32] = target: Dual specificity mitogen-activated protein kinase kinase 3 (Homo sapiens) (UniProt P46734); conditions: Compound concentration 1000.0 nM
[33] = target: Phosphatidylinositol 3-kinase C2 domain-containing subunit gamma (Homo sapiens) (UniProt O75747); conditions: Compound concentration 1000.0 nM
Sequence of Phosphatidylinositol 3-kinase C2 domain-containing subunit gamma (Homo sapiens) (O75747 whole entry, the tested form may be a part): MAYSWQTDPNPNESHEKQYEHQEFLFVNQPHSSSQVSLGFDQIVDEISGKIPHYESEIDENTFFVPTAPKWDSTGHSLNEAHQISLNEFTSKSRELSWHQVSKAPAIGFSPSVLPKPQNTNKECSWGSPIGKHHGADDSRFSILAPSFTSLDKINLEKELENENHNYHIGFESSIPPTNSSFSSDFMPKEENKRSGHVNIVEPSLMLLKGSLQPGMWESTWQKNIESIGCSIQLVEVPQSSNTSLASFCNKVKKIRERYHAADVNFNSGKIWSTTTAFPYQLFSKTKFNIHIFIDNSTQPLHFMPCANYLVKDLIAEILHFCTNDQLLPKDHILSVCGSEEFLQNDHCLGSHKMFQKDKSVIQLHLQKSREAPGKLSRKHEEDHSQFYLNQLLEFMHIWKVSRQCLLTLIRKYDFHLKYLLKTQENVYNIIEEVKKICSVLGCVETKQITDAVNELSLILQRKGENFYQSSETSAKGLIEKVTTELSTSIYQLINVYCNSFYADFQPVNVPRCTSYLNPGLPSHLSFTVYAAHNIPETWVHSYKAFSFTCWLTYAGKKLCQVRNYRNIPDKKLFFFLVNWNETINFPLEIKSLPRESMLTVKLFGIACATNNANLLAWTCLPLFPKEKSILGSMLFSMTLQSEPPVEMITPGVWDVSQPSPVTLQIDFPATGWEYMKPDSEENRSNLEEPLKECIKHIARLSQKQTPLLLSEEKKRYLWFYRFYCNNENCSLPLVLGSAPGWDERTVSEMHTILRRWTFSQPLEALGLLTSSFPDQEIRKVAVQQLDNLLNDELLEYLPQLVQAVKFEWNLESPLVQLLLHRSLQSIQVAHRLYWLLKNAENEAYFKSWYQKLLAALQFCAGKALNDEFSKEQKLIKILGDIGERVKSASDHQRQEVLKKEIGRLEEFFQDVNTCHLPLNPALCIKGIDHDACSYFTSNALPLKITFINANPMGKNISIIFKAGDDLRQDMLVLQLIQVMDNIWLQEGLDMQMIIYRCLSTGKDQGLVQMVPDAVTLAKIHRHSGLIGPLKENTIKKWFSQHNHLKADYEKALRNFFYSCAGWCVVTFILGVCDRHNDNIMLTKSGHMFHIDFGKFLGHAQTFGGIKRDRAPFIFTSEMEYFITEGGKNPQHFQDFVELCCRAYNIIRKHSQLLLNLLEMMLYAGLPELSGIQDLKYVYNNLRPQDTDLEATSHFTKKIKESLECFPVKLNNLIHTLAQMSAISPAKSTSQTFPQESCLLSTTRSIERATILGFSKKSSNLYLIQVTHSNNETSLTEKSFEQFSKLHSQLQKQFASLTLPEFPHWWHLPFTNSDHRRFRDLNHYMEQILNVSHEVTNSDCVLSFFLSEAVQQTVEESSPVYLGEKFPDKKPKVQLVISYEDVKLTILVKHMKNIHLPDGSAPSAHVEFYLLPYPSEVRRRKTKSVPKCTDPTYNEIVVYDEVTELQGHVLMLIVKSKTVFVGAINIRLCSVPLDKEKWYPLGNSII

[34] = system: Tyrosine-protein kinase ABL1 (Homo sapiens), P00519 [M351T]; conditions: Compound concentration 1000.0 nM
[35] = target: Mitogen-activated protein kinase 1 (Homo sapiens) (UniProt P28482); conditions: Compound concentration 1000.0 nM
Sequence of Mitogen-activated protein kinase 1 (Homo sapiens) (P28482 whole entry): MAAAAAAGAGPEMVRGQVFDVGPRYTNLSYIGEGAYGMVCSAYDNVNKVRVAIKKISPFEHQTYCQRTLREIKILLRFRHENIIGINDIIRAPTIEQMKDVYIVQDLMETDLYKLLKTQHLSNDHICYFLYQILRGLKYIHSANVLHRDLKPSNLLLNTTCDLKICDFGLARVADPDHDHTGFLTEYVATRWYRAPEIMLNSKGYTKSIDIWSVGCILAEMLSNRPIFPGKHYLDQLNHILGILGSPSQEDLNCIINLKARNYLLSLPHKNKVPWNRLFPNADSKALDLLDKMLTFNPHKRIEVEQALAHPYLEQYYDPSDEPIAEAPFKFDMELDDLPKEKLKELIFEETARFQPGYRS

[36] = target: Macrophage colony-stimulating factor 1 receptor (Homo sapiens) (UniProt P07333); conditions: Compound concentration 1000.0 nM
[37] = target: Serine/threonine-protein kinase RIO1 (Homo sapiens) (UniProt Q9BRS2); conditions: Compound concentration 1000.0 nM
[38] = target: Methionine aminopeptidase 2 (Homo sapiens, UniProt P50579); assay: Biochemical activity-MetAP2 using Mn
[39] = target: Histamine H3 receptor (Homo sapiens) (UniProt Q9Y5N1); conditions: Compound concentration 10.0 uM
[40] = target: Mitogen-activated protein kinase 14 (Homo sapiens) (UniProt Q16539); conditions: Compound concentration 1000.0 nM
[41] = target: Mitogen-activated protein kinase kinase kinase kinase 2 (Homo sapiens) (UniProt Q12851); conditions: Compound concentration 1000.0 nM
[42] = target: Phosphatidylinositol 4,5-bisphosphate 3-kinase catalytic subunit beta isoform (Homo sapiens) (UniProt P42338); conditions: Compound concentration 1000.0 nM
[43] = target: 5-hydroxytryptamine receptor 1A (Homo sapiens) (UniProt P08908); conditions: Compound concentration 10.0 uM
[44] = target: Dual serine/threonine and tyrosine protein kinase (Homo sapiens) (UniProt Q6XUX3); conditions: Compound concentration 1000.0 nM
[45] = target: Rhodopsin kinase GRK7 (Homo sapiens) (UniProt Q8WTQ7); conditions: Compound concentration 1000.0 nM

How did the residual activity [1] turn out when `Cc1nc(N2CC[C@@H](O)C2)ncc1-c1cc(C(F)(F)F)cc2[nH]ncc12` [TP-004] was run?
The residual activity was 100%.

And the residual activity [2]?
The residual activity was 75%.

And the residual activity [3]?
Its residual activity is 100%.

What about the residual activity [4] of the same molecule?
Its residual activity is 100%.

And the residual activity [5]?
Its residual activity is 59%.

What about the Ki [6] of the same molecule?
Its Ki is 4.54 µM.

And the residual activity [7]?
The residual activity was 96%.

And the residual activity [8]?
The residual activity was 70%.

And the residual activity [9]?
Its residual activity is 95%.

And the residual activity [10]?
Its residual activity is 100%.

And the residual activity [11]?
The residual activity was 100%.

And the residual activity [12]?
Its residual activity is 100%.

What about the residual activity [13] of the same molecule?
Its residual activity is 52%.

And the residual activity [14]?
The residual activity was 70%.

What about the residual activity [15] of the same molecule?
The residual activity was 96%.

And the residual activity [16]?
The residual activity was 67%.

What about the residual activity [17] of the same molecule?
The residual activity was 100%.

What about the residual activity [18] of the same molecule?
The residual activity was 100%.

What about the residual activity [19] of the same molecule?
Its residual activity is 96%.

What about the residual activity [20] of the same molecule?
The residual activity was 76%.

And the residual activity [21]?
Its residual activity is 100%.

What about the residual activity [22] of the same molecule?
The residual activity was 69%.

What about the residual activity [23] of the same molecule?
Its residual activity is 100%.

What about the residual activity [24] of the same molecule?
Its residual activity is 97%.

And the residual activity [25]?
Its residual activity is 85%.

What about the residual activity [26] of the same molecule?
Its residual activity is 100%.

And the residual activity [27]?
The residual activity was 92%.

What about the residual activity [28] of the same molecule?
Its residual activity is 74%.

And the residual activity [29]?
The residual activity was 95%.

What about the residual activity [30] of the same molecule?
Its residual activity is 100%.

And the residual activity [31]?
The residual activity was 77%.

And the residual activity [32]?
The residual activity was 90%.

What about the residual activity [33] of the same molecule?
Its residual activity is 90%.

And the residual activity [34]?
The residual activity was 72%.

What about the residual activity [35] of the same molecule?
The residual activity was 100%.

What about the residual activity [36] of the same molecule?
Its residual activity is 89%.

And the residual activity [37]?
Its residual activity is 100%.

What about the IC50 [38] of the same molecule?
Its IC50 is 0.007 µM (active).

What about the inhibition [39] of the same molecule?
The inhibition was 28.6%.

What about the residual activity [40] of the same molecule?
The residual activity was 100%.

And the residual activity [41]?
The residual activity was 76%.

And the residual activity [42]?
The residual activity was 60%.

And the inhibition [43]?
Its inhibition is 20%.

What about the residual activity [44] of the same molecule?
The residual activity was 88%.

What about the residual activity [45] of the same molecule?
Its residual activity is 70%.
